Measured values: patent publication US20250332173A1, “COMPOUNDS AND METHODS FOR MODULATING NUCLEIC ACID SPLICING” (REMIX THERAPEUTICS INC., priority 2021, published 2025)
Read-outs that look alike come from different tables or passages of the source.

How the values were obtained:
HTT mRNA = assay: RT-qPCR splicing assay, HTT canonical junction (CJ) and alternative junction (AJ) mRNA; assay type: cell-based, human; settings: Homo sapiens; for AC50: increase in HTT alternative junction (AJ) mRNA, read-out: HTT AJ AC50
Summary of the method: (§1)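 Read-out is one-step RT-qPCR on cell lysates detecting the exon-exon junction of each isoform, normalized to a housekeeping gene (PPIA in A673, GAPDH or GUSB in K562).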

MYB mRNA = assay: RT-qPCR splicing assay, MYB canonical junction (CJ) and alternative junction (AJ) mRNA; assay type: cell-based, human; settings: Homo sapiens; for AC50: increase in MYB alternative junction (AJ) mRNA, read-out: MYB AJ AC50
Summary of the method: as §1

SMN2 mRNA = assay: RT-qPCR splicing assay, SMN2 canonical junction (CJ) mRNA; assay type: cell-based, human; settings: Homo sapiens; canonical junction qPCR panel, Table 5; read-out: SMN2 (decrease in CJ mRNA levels, IC50)
Summary of the method: (§2)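 A673 cells (DMEM/10% FBS) or K562 cells (IMDM/10% FBS) were treated 24 h at 37° C. with 11-point 3-fold dilutions (top 10 uM, ≤0.25% DMSO). Canonical-junction mRNA was quantified in lysates by RT-qPCR, normalized to GAPDH, GUSB or PPIA.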

Target C = assay: RT-qPCR splicing assay panel, Target C canonical junction (CJ) mRNA; assay type: cell-based, human; settings: Homo sapiens; canonical junction qPCR panel, Table 5; read-out: Target C (decrease in CJ mRNA levels, IC50)
Summary of the method: as §2

[1] = system: K562 (human chronic myelogenous leukemia) cells; assay: Cell Titer Glo 2.0 cell viability assay; assay type: cell-based; settings: K562 cells, 72 hours, Cell Titer Glo 2.0, read-out: K562 GI50
[2] = decrease in HTT canonical junction (CJ) mRNA, RT-qPCR, read-out: HTT CJ IC50
[3] = canonical junction qPCR panel, Table 5, read-out: HTT (decrease in CJ mRNA levels, IC50)
[4] = canonical junction qPCR panel, Table 5, read-out: MYB (decrease in CJ mRNA levels, IC50)
[5] = decrease in MYB canonical junction (CJ) mRNA, RT-qPCR, read-out: MYB CJ IC50

| Structure (SMILES) | IC50 (HTT mRNA; [2]) [nM] | AC50 (HTT mRNA; RT-qPCR) [nM] | IC50 (HTT mRNA; [3]) [nM] | IC50 (MYB mRNA; [4]) [nM] | IC50 (MYB mRNA; [5]) [nM] | AC50 (MYB mRNA; RT-qPCR) [nM] | IC50 (SMN2 mRNA) [nM] | IC50 (Target C) [nM] | GI50 ([1]; Homo sapiens, K562, 72 h) [nM] | GI50 [1] [nM] |
| --- | --- | --- | --- | --- | --- | --- | --- | --- | --- | --- |
| Cc1cn2cc(-c3ncc4c(=O)n([C@@H]5C[C@@H](C)N[C@@H](C)C5)ccc4n3)cc(F)c2n1 [Compound 1480, 6-[(2R,6S)-2,6-dimethyl-4-piperidyl]-2-(8-fluoro-2-methyl-imidazo[1,2-a]pyridin-6-yl)pyrido[4,3-d]pyrimidin-5-one] | 100 to 1000 | 100 to 1000 | 100 to 1000 | 100 to 1000 | 100 to 1000 | 100 to 1000 | 100 to 1000 | 100 to 1000 | 100 to 1000 |  |
| C[C@H]1C[C@@H](n2ccc3nc(-c4cc(F)c5nn(C)cc5c4)ncc3c2=O)CCN1 [Compound 1503, 2-(7-fluoro-2-methyl-indazol-5-yl)-6-[(2S,4S)-2-methyl-4-piperidyl]pyrido[4,3-d]pyrimidin-5-one] | 100 to 1000 | 100 to 1000 | 100 to 1000 | 100 to 1000 | < 100 | 100 to 1000 | < 100 | 100 to 1000 | 100 to 1000 |  |
| CN1CCN(c2ccc3ncn(-c4cc(F)c5nn(C)cc5c4)c(=O)c3c2)CC1 [Compound 2194] | 1000 to 10000 | 1000 to 10000 | 1000 to 10000 | 1000 to 10000 | 1000 to 10000 | 1000 to 10000 | 1000 to 10000 | 1000 to 10000 | 1000 to 10000 |  |
| Cc1cn2cc(-c3ccc4c(=O)n(C56CCC(N)(CC5)C6)ccc4n3)cc(F)c2n1 [Compound 1492] | 1000 to 10000 | 1000 to 10000 | 1000 to 10000 | 100 to 1000 | 100 to 1000 | 100 to 1000 | < 100 | 1000 to 10000 | 100 to 1000 |  |
| Cc1c(O)c(-c2ccc3c(=O)n(C45CCC(NC(C)C)(CC4)C5)ccc3n2)cc2cn(C)nc12 [Compound 1526] | > 10000 | 1000 to 10000 | 1000 to 10000 | < 100 | < 100 | < 100 | < 100 | > 10000 | 100 to 1000 |  |
| Cc1cn2cc(-c3nc(C)c4c(=O)n([C@H]5CCN[C@@H](C)C5)ccc4n3)cc(F)c2n1 [Compound 1501, 2-(8-fluoro-2-methyl-imidazo[1,2-a]pyridin-6-yl)-4-methyl-6-[(2S,4S)-2-methyl-4-piperidyl]pyrido[4,3-d]pyrimidin-5-one] | 100 to 1000 | 100 to 1000 | 100 to 1000 | < 100 | < 100 | < 100 | < 100 | 100 to 1000 | 100 to 1000 |  |
| Cc1cn2nc(-c3ccc4c(=O)n([C@@H]5CCNC6(CCC6)C5)ccc4n3)cc(C)c2n1 [Compound 1517] | 100 to 1000 | 100 to 1000 | 100 to 1000 | 100 to 1000 | 100 to 1000 | 100 to 1000 | < 100 | 1000 to 10000 | 1000 to 10000 |  |
| C[C@H]1C[C@@H](n2ccc3nc(-c4cc5cn(C)nc5cc4O)ncc3c2=O)CCN1 [Compound 1493, 2-(6-hydroxy-2-methyl-indazol-5-yl)-6-[(2S,4S)-2-methyl-4-piperidyl]pyrido[4,3-d]pyrimidin-5-one] | 1000 to 10000 | 1000 to 10000 | 1000 to 10000 | 100 to 1000 | 100 to 1000 | 100 to 1000 | < 100 | 1000 to 10000 | 100 to 1000 |  |
| Cc1cn2cc(-c3ncc4c(=O)n([C@@H]5CCN[C@@H](C)C5)ccc4n3)cc(F)c2n1 [Compound 1498, 2-(8-fluoro-2-methyl-imidazo[1,2-a]pyridin-6-yl)-6-[(2S,4R)-2-methyl-4-piperidyl]pyrido[4,3-d]pyrimidin-5-one] | 1000 to 10000 | 1000 to 10000 | 1000 to 10000 | 100 to 1000 | < 100 | 100 to 1000 | < 100 | 1000 to 10000 | 100 to 1000 |  |
| Cc1cn2nc(-c3ccc4c(=O)n([C@H]5CCN[C@@H](C6CC6)C5)ncc4n3)cc(C)c2n1 [Compound 1550] | 100 to 1000 | 100 to 1000 | 100 to 1000 | 100 to 1000 | 100 to 1000 | 100 to 1000 | 100 to 1000 | 100 to 1000 | 1000 to 10000 |  |
| Cc1c(O)c(-c2ncc3c(=O)n([C@H]4CC[C@H](N)C4)ccc3n2)cc2cn(C)nc12 [Compound 1521] | 1000 to 10000 | 100 to 1000 | 100 to 1000 | 100 to 1000 | 100 to 1000 | 100 to 1000 | < 100 | 1000 to 10000 |  | 100 to 1000 |
| Cc1cn2nc(-c3ccc4c(=O)n(C5CCNC6(CC6)C5)ncc4n3)cc2c(C)n1 (stereo not drawn) [Compound 1547, 6-(4-azaspiro[2.5]octan-7-yl)-2-(4,6-dimethylpyrazolo[1,5-a]pyrazin-2-yl)pyrido[2,3-d]pyridazin-5-one] | 1000 to 10000 | 100 to 1000 | 100 to 1000 | 1000 to 10000 | 1000 to 10000 | 1000 to 10000 | 100 to 1000 | 1000 to 10000 | 1000 to 10000 |  |
| CN[C@H]1CC[C@@H](n2ccc3nc(-c4cc5cn(C)nc5c(C)c4O)ncc3c2=O)C1 [Compound 1478, 2-(6-hydroxy-2,7-dimethyl-indazol-5-yl)-6-[(1R,3S)-3-(methylamino)cyclopentyl]pyrido[4,3-d]pyrimidin-5-one] | 1000 to 10000 | 1000 to 10000 | 1000 to 10000 | 100 to 1000 | 100 to 1000 | 100 to 1000 | < 100 | 1000 to 10000 | 100 to 1000 |  |
| Cc1cn2nc(-c3ccc4c(=O)n([C@H]5CCN[C@@H](C)C5)ccc4n3)cc(C)c2n1 [Compound 1495] | 100 to 1000 | < 100 | < 100 | < 100 | < 100 | < 100 | < 100 | 100 to 1000 | 100 to 1000 |  |
| Cc1cn2nc(-c3ccc4c(=O)n(C56CCC(N)(CC5)C6)ccc4n3)cc(C)c2n1 [Compound 1504, 6-(4-aminonorbornane-1-yl)-2-(2,8-dimethylimidazo[1,2-b]pyridazin-6-yl)-1,6-naphthyridin-5-one] | 1000 to 10000 | 100 to 1000 | 100 to 1000 | < 100 | < 100 | < 100 | < 100 | 1000 to 10000 | 100 to 1000 |  |
| CNC12CCC(n3ccc4nc(-c5cc6cn(C)nc6cc5O)ccc4c3=O)(CC1)C2 [Compound 1525] | 1000 to 10000 | 1000 to 10000 | 1000 to 10000 | < 100 | < 100 | < 100 | < 100 | > 10000 | < 100 |  |
| Cc1cn2cc(-c3ccc4c(=O)n([C@@H]5CCN[C@H](C)C5)ccc4n3)cc(F)c2n1 [Compound 1475] | > 10000 | 1000 to 10000 | 1000 to 10000 | 1000 to 10000 | 1000 to 10000 | 1000 to 10000 | 100 to 1000 | 1000 to 10000 | 1000 to 10000 |  |
